Test results reported in patent US4529602A, “Method for treatment or prophylaxis of gastro-intestinal disease” (priority 1981, dated 1985).
Counter-ions that a name gives are not always drawn.

Columns and labels:
in vivo = details: mouse, oral, male ddY-strain mice, 7 days
Method: After male ddY-strain mice (4 weeks old) were starved for 4 hours, a suspension of a test compound in distilled water containing a small amount of Tween 80 was administered orally to the mice in an amount of 0.1 ml per 10 g of body weight. After administration of the test compound, the mice were allowed free access to water and food. […] As a result, the LD50 of sulfodehydroabietic acid calcium salt was more than 2,000 mg/kg.

gastric mucous membrane = test: Protective effect on gastric mucous membrane (excised stomach in artificial gastric juice); set-up: species or system Male Sprague-Dawley rats; details: 37° C., 60 min; for Amount of tyrosine: control 2.42 ± 0.15; for Amount of tyrosine / Inhibition (%) of digestion of mucous membrane: hydrate
Method: Protective effect of a test compound on gastric mucous membrane was examined by the method of Diago et al. (Yakugaku Zasshi, 101, 452-457(1981)). Male Sprague-Dawley rats (6-7 weeks old; one group: 5 rats) were fasted for 20 hours before the experiments. Water was given ad libitum and coprophagy was prevented by using cages with wide-mesh floors. The stomach was excised, opened along the greater curvature, rinsed in physiological saline solution, and the rumen was discarded. The stomach was incubated in 10 ml of an artificial gastric juice (100 mM HCl, 0.3% pepsin, 0.2% NaCl) containing a test compound, at 37° C. for 60 minutes. After the incubation, 2 ml of 7% trichloroacetic acid were added to 0.5 ml of medium, and the mixture was centrifuged. The amount of tyrosine in the supernatant was measured by using Folin-Ciocelteu reagent (J. gen. Physiol., 16, 59-63(1932)), and expressed as mg tyrosine/g tissue. The protective effect of the test compound on gastric mucous membrane was estimated in terms of "the inhibition of digestion of mucous membrane" which was calculated by the following formula: [formula] (Results)

gastric acid secretion = test: Preventive effect on gastric acid secretion in pylorus-ligated rats; type: in vivo, Male SD-strain rats; details: 100 mg/kg oral, 5 h after administration, hydrate
Method: (§1) Preventive effect on acid and pepsin secretions
(§2) Male SD-strain rats (6 to 7 weeks old) were starved for 48 hours, and then the pylori were ligated. Immediately after ligation, a solution or suspension of a test compound in distilled water was administered orally into the stomachs in an amount of 0.2 ml per 100 g of body weight (Dose: 100 mg/kg). Five hours after said administration of the test compound, the rats were sacrificed and the stomachs were removed. The gastric contents were centrifuged at 2,500 rpm for 10 minutes and the gastric juice was collected as the supernatant. The concentration of pepsin in the gastric juice was determined by Anson's method (c.f., J. Gen. Physiol., 22, pp. 77-89 (1938)) using hemoglobin as the substrate, and the preventive effect of the test compound on the pepsin secretion was estimated in terms of "decrease in pepsin concentration" according to the following formula: [formula]
On the other hand, the concentration of free acid in the gastric juice was determined by titrating said gastric juice to pH 7.0 with 0.1N NaOH, and the preventive effect of the test compound on the gastric acid secretion was estimated in terms of "the decrease in acidity of gastric juice" according to the following formula: [formula] (Results)

urinary electrolytes [1] = test: Effect on urine volume and urinary electrolytes (Experiment 7); type: in vivo, Male SD-strain rats; details: for Urine volume: 5 h, 2 rats per cage, control 12.3; for Na/K: 5 h urine, control 5.8
Method: Male SD-strain rats (6 to 7 weeks old) were starved overnight, and a physiological saline solution (3 ml/100 g of body weight) was orally administered to the rats. One hour later, a solution or suspension of a test compound in a 0.25% CMC-physiological saline solution was administered orally to the rats in an amount of 3 ml per 100 g of body weight (Dose: 50 and 500 mg/kg). Immediately after administration of the test compound, the rats were placed into metabolic cages (2 rats per cage) and deprived of water and food for 5 hours. The urine samples which were excreted during a 5 hour period were collected. Sodium and potassium in the urine were estimated by a flame photometer (Hitachi Model-205).

pepsin secretion = test: Preventive effect on pepsin secretion in pylorus-ligated rats; type: in vivo, Male SD-strain rats; details: 100 mg/kg oral, 5 h after administration, hydrate
Method: as §1, §2

gastric mucus secretion = test: Effect on gastric mucus secretion (alcian blue binding); type: in vivo, Male Sprague-Dawley rats; details: 100 mg/kg oral, 1 h, hydrate; for Alcian blue binding: control (water) 198.5 ± 6.4
Method: Stimulating effect of a test compound on gastric mucus secretion was examined by the method of Corne et al. (J. Physiol., 242, pp. 116-117(1974); J. Pharm. Pharmacol., 33, pp. 348-352(1981)). Male Sprague-Dawley rats (6-7 weeks old; one group: 6 rats) were fasted for 20 hours before the experiments. Water was given ad libitum and coprophagy was prevented by using cages with wide-mesh floors. A test compound dissolved or suspended in distilled water was administered orally to the rats at a dose of 100 mg/kg. One hour after the administration of the test compound, the stomachs were dissected, opened along the greater curvature, rinsed in ice-cold 0.25M sucrose, and the rumen was discarded. Then, the stomachs were incubated in 10 ml of a 0.15M sucrose-0.05M sodium acetate solution (pH 5.8) containing alcian blue (1 mg/ml), at room temperature for 1.5 hours. Finally, the stomachs were placed in 15 ml of a 0.5M magnesium chloride solution for 2 hours with occasional shaking and then removed, and the magnesium chloride solution was shaken briefly with 10 ml of diethyl ether. The optical density of the aqueous layer was read at 605 nm, and the degree of alcian blue binding was expressed as μg alcian blue/g of tissue. The stimulating effect of the test compound on gastric mucus secretion was estimated in terms of "the increase in alcian blue binding" which was calculated by the following formula: [formula] (Results)

Shay rat ulcers = test: Effect on Shay rat ulcers (pylorus-ligated); type: in vivo, Male SD-strain rats; details: 17 h
Method: Male SD-strain rats (6 to 7 weeks old) were starved for 48 hours and then the pylori were ligated. Immediately after ligation, a solution or suspension of a test compound in distilled water was administered orally into the stomachs in an amount of 0.2 ml per 100 g of body weight (Dose: 200 or 300 mg/kg). Seventeen hours after the administration of the test compound, the degree of ulceration in forestomach was examined according to the method of Takagi et al (Chem. Pharm. Bull., 11(10), pp. 1282-1290 (1963)) with a modified scoring system. Depending on the diameter of each lesions, the ulcers were classified into the following 4 grades. Ulcer index was calculated by the sum of the number of ulcers in each degree multiplied by respective ulcer score. Further, based on the ulcer index determined above, the preventive effect of the test compound on Shay rat ulcer was calculated by the following formula: [formula] (Results)

rats = test: Acute oral toxicity in rats (Experiment 10); type: in vivo; details: male SD-strain rats, 7 days, hydrate, 10080 min
Method: (§3) After male SD-strain rats (6-7 weeks old) were starved for 20 hours, a solution or suspension of a test compound in distilled water was administered orally to the rats in an amount of one ml per 100 g of body weight. After administration of the test compound, the rats were allowed free access to water and food.

aspirin-induced ulcers = test: Effect on aspirin-induced ulcers; type: in vivo, Male Donryu-strain rats; details: p.o. 0.8 m mol./kg (400 mg/kg); aspirin 200 mg/kg
Method: Male Donryu-strain rats (8 to 9 weeks old) were starved overnight, and a solution or suspension of a test compound in distilled water was administered orally into the stomachs in an amount of one ml per 100 g of body weight. Half an hour later, a suspension of aspirin in 0.25% CMC solution was administered orally to the rats in an amount of 0.5 ml per 100 g of body weight (Dose: 200 mg/kg). Four hours after the administration of aspirin, the rats were sacrificed and the stomachs were removed and inflated by injecting 10 ml of 1% formalin solution to fix the inner layers of the gastric walls. The stomach was then incised along the greater curvature and the lengths of the lesions were measured and summated to give ulcer index (in mm) for each animal. The preventive effect of the test compound on aspirin-induced ulcers were calculated by the following formula: [formula] (Results)

urinary electrolytes [2] = test: Effect on urinary electrolytes (Experiment 9); type: in vivo, Male SD-strain rats; details: for Urine volume: 4 h, control 6.5 ± 0.3; for Na/K ratio: 4 h urine, control 5.8 ± 0.6
Method: Male SD-strain rats (6 to 7 weeks old, one group: 6 rats) were starved overnight, and a physiological saline solution (3 ml/100 g of body weight) was orally administered to the rats. One hour later, a suspension of a test compound in a physiological saline solution was administered orally to the rats in an amount of 3 ml per 100 g of body weight (Dose: 500 or 1,000 mg/kg). Immediately after administration of the test compound, the rats were placed into metabolic cages (one rat per cage) and deprived of water and food for 4 hours. The urine samples which were excreted during a 4 hour period were collected. Sodium and potassium in the urine were estimated by a flame photometer (Hitachi Model-205).

[3] = Acute oral toxicity in rats (Experiment 10); type: in vivo; details: rat, in vivo, male SD-strain rats, 7 days
Method: as §3

[4] = 1 mg/ml in artificial gastric juice
[5] = 4 mg/ml in artificial gastric juice

## CC(C)c1cc2c(cc1S(=O)(=O)O)[C@@]1(C)CCC[C@@](C)(C(=O)O)[C@@H]1CC2 [Sulfodehydroabietic acid calcium salt, sulfodehydroabietic acid calcium salt 2.5 hydrate]
In vivo
  LD50 at 168 h: > 2000 mg/kg
Gastric mucous membrane; [4]
  Amount of tyrosine: 1.72 ± 0.08 mg/g tissue
  Inhibition (%) of digestion of mucous membrane: 29%
Gastric mucous membrane; [5]
  Amount of tyrosine: 0.86 ± 0.04 mg/g tissue
  Inhibition (%) of digestion of mucous membrane: 64%
Gastric acid secretion
  Decrease (%) in acidity of gastric juice: 30%
Urinary electrolytes [1]; 50 mg/kg oral
  Urine volume: 11.5 mL
  Na/K: 5.2
Urinary electrolytes [1]; 500 mg/kg oral
  Urine volume: 11.3 mL
  Na/K: 6.8
Pepsin secretion
  Decrease (%) in pepsin concentration: 99%
Gastric mucus secretion
  Alcian blue binding: 284.7 ± 14.9 μg/g tissue
  Increase (%) in alcian blue binding: 44%
Shay rat ulcers; 300 mg/kg oral
  Preventive effect on Shay rat ulcers: 100%
rats
  LD50: > 2000 mg/kg

## CC(C)c1cc2c(cc1S(=O)(=O)O)[C@@]1(C)CCC[C@@](C)(C(=O)O)[C@@H]1CC2 [Sulfodehydroabietic acid monosodium salt, 1,4a-dimethyl-1-carboxy-6-sulfo-7-isopropyl-1,2,3,4,4a,9,10,10a-octahydro-phenanthrene monosodium salt 5 hydrate]
Gastric mucous membrane; [4]
  Amount of tyrosine: 1.61 ± 0.13 mg/g tissue
Gastric mucous membrane; [5]
  Amount of tyrosine: 0.95 ± 0.07 mg/g tissue
Gastric mucous membrane; Rattus norvegicus, 1 h, 1 mg/ml in artificial gastric juice, read-out: Inhibition (%) of digestion of mucous membrane
  inhibition at 1000 µg/mL: 33%
Gastric mucous membrane; Rattus norvegicus, 1 h, 4 mg/ml in artificial gastric juice, read-out: Inhibition (%) of digestion of mucous membrane
  inhibition at 4000 µg/mL: 61%
Gastric acid secretion
  Decrease (%) in acidity of gastric juice: 43%
aspirin-induced ulcers
  Preventive effect on aspirin-induced ulcers: 68%
Pepsin secretion
  Decrease (%) in pepsin concentration: 96%
Gastric mucus secretion
  Alcian blue binding: 287.3 ± 34.2 μg/g tissue
  Increase (%) in alcian blue binding: 45%
Urinary electrolytes [2]; 500 mg/kg oral
  Urine volume: 6.2 ± 0.5 mL
  Na/K ratio: 5.6 ± 0.5
Urinary electrolytes [2]; 1000 mg/kg oral
  Urine volume: 4.7 ± 0.4 mL
  Na/K ratio: 5.9 ± 0.2
Urinary electrolytes [2]; 500 or 1000 mg/kg oral, rats, in words
  change in urinary sodium-potassium ratio: no substantial change in urinary sodium-potassium ratio
Shay rat ulcers; 200 mg/kg oral, hydrate
  Preventive effect on Shay rat ulcers: 100%
[3]
  LD50 at 168 h: > 2000 mg/kg
